Measurements taken from paper PMC5623949, “Exploiting the 2-Amino-1,3,4-thiadiazole Scaffold To Inhibit Trypanosoma brucei Pteridine Reductase in Support of Early-Stage Drug Discovery” (ACS Omega, 2017).
Like-named read-outs stand apart in the source and are kept apart here.

Tests used:
CYP2C19 = CYP2C19 (Homo sapiens, UniProt P33261); test: in vitro; parameters: cytochrome P450 isoform inhibition liability assay
Method: (§1) Independent of the effect of any antiparasitic potential of compounds, they were evaluated using a panel of early-toxicity assays comprising cytotoxicity (A549, human lung adenocarcinoma epithelial cell line and WI-38, human lung fibroblasts), mitochondrial toxicity (786-O, human renal carcinoma cell line), hERG inhibition,[31] cytochrome P450 inhibition (CYP1A2, CYP2C9, CYP2C19, CYP2D6, and CYP3A4),[31] and Aurora B kinase inhibition. […] For the two compounds active against TbPTR1 (4m and 4o), IC50 against hERG, cytochrome P450, and mitochondrial toxicity were determined (reported in Supporting Information). We observed that the dose of compounds 4m, 4o, 4c, and 3k was 4 μM in the potentiation assays. […] In the case of hERG, CYP2D6, CYP2A9, CYP2C19, and mitochondrial toxicity, there is a selectivity index of around 3–4 fold, thus showing an acceptable profile.  Figure 10 Summary heat map of the in vitro assays to determine possible liability issues for all synthesized compounds. Assays were performed to assess inhibition of hERG and five CYP isoforms (1A2, 2C9, 2C19, 2D6, and 3A4), growth inhibition of A549 and W1-38 cell lines, and mitochondrial toxicity at 10 μM. The hDHFR inhibition was determined at 100 μM. The data, expressed as percentage values, were organized by adopting a color code for rapid and intuitive visualization. The ideal compound should have all tiles blue, indicating a safe toxicological profile for progressing into the development pipeline. The cells are colored from blue (100% of cell growth at the tested concentration) to red (0% of cell growth at the tested concentration) for A549 and W1-38 and from blue (0% of inhibitory activity at the tested concentration) to red (100% of inhibitory activity at the tested concentration) for CYP isoforms, hERG, hDHFR, and mitochondrial toxicity.

CYP2C9 = CYP2C9 (Homo sapiens, UniProt P11712); test: in vitro; parameters: cytochrome P450 isoform inhibition liability assay
Chain of CYP2C9 (P11712 whole entry, canonical isoform): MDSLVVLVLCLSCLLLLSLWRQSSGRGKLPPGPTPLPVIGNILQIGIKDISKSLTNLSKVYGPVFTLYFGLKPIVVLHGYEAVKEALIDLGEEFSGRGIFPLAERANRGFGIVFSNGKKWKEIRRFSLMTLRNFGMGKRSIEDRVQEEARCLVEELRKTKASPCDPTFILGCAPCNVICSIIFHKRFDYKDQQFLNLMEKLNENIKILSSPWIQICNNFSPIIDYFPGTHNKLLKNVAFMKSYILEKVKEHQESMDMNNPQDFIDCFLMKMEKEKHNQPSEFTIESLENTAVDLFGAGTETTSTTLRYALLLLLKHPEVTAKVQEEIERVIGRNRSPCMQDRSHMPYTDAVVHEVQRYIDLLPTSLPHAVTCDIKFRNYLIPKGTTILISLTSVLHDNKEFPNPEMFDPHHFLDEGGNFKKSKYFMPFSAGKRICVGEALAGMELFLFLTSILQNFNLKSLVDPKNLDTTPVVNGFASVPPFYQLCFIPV
Method: as §1

CYP2D6 = CYP2D6 (Homo sapiens, UniProt P10635); test: in vitro; parameters: cytochrome P450 isoform inhibition liability assay
Chain of CYP2D6 (P10635 whole entry, canonical isoform): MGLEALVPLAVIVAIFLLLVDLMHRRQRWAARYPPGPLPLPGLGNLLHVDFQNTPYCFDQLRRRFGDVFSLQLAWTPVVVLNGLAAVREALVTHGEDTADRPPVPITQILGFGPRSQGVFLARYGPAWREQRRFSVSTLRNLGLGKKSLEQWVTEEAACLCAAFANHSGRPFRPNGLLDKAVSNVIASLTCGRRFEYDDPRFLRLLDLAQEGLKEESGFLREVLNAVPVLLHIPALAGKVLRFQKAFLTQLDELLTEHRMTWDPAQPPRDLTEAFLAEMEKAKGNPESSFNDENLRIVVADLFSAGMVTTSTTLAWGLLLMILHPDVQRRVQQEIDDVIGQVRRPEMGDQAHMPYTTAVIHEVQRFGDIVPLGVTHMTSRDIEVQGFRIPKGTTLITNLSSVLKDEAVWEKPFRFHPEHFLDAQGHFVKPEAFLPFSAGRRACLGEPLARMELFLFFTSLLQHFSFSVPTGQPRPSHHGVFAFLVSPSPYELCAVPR
Method: as §1

CYP3A4 = CYP3A4 (Homo sapiens, UniProt P08684); test: in vitro; parameters: cytochrome P450 isoform inhibition liability assay
Chain of CYP3A4 (P08684 whole entry, canonical isoform): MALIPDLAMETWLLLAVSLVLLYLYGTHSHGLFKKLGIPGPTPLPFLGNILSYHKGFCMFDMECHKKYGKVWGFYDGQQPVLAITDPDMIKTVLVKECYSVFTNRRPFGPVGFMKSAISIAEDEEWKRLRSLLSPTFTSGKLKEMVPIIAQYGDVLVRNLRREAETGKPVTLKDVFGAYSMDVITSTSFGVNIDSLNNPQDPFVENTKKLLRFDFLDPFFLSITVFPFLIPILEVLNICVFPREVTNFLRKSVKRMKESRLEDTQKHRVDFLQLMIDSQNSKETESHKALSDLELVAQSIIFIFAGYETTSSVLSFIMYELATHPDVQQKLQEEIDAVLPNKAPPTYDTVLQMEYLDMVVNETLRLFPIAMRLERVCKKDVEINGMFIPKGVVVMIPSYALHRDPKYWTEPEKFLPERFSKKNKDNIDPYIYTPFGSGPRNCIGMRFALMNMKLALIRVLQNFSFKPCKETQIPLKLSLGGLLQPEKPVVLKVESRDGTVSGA
Method: as §1

CYP1A2 = target: T1, CYP1A2 (Homo sapiens, UniProt P05177); test: in vitro; parameters: cytochrome P450 isoform inhibition liability assay
T1 sequence (P05177 1-516): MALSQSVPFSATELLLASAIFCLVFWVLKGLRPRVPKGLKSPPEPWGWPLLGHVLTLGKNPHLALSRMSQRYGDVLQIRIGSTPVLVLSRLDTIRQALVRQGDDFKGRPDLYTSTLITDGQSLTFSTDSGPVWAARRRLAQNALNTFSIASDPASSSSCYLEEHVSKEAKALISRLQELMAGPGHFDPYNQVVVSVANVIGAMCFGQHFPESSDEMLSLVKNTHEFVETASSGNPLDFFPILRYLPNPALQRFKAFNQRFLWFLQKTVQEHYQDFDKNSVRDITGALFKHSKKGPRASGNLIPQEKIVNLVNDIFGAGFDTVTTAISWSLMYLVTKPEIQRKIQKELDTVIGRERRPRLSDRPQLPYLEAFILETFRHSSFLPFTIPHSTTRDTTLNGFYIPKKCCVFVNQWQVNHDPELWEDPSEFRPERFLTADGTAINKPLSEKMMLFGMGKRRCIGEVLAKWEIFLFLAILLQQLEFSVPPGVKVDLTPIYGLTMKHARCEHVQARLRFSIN
Method: as §1

hERG = target: T2, hERG (Homo sapiens, UniProt Q12809); parameters: hERG inhibition liability assay
T2 construct: gene KCNH2
T2 sequence (Q12809 whole entry): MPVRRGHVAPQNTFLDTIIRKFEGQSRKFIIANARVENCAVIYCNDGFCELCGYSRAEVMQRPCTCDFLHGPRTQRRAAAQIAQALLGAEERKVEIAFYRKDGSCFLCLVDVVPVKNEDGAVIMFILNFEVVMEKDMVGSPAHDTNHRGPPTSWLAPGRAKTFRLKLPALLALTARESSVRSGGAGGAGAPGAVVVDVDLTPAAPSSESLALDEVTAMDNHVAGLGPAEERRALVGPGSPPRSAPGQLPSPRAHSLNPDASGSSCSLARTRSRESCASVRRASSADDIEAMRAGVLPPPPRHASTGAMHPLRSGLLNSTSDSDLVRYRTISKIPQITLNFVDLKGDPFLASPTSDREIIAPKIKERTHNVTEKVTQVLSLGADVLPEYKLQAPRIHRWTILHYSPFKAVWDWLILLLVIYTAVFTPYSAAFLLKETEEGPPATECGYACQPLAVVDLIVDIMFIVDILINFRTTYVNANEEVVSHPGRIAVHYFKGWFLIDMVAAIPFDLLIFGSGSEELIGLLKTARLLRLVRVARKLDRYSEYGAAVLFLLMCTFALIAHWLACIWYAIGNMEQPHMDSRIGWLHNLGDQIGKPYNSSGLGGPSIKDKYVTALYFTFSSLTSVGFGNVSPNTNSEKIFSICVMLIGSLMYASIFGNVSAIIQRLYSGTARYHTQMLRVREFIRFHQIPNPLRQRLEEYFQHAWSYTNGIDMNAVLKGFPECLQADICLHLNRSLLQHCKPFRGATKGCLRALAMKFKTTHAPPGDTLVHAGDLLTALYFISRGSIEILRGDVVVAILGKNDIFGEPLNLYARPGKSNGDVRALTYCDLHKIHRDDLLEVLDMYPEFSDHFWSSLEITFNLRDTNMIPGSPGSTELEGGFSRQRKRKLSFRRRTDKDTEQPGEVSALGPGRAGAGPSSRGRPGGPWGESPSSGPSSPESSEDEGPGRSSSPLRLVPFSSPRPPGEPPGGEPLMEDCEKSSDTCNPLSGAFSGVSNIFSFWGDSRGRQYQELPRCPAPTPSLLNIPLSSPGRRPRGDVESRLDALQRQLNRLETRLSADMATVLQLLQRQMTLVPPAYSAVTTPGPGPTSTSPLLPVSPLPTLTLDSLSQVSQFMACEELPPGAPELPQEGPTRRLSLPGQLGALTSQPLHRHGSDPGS
Method: as §1

786-O = test: cells; parameters: mitochondrial toxicity in 786-O renal carcinoma cells; details: Homo sapiens, 786-0; mitochondrial toxicity
Method: as §1

[1] = system: T. b. brucei Lister 427 bloodstream forms; test: In vitro activity against T. brucei (HTS SYBR Green I growth inhibition assay); type: cell-based, Trypanosoma brucei brucei; details: Trypanosoma brucei, standard deviation within ±10% of the value; for inhibition at 50 µM: read-out: % Inhibition T. brucei at 50 μM
in vitro [2] = test: in vitro; parameters: cytotoxicity, per cent cell growth of WI-38 fibroblasts; details: human, wi-38 cells; read-out: % cell growth W1-38 at 10uM
Method: as §1

in vitro [3] = test: in vitro; parameters: cytotoxicity, per cent cell growth of A549 cells; details: human, a549 cells; read-out: % cell growth A549 at 10uM
Method: as §1

TbPTR1 = target: T3, TbPTR1 (Trypanosoma brucei brucei, UniProt O76290); test: biochemical; details: 50 μM compound; for inhibition at 50 µM: read-out: % Inhibition TbPTR1 at 50 μM
T3 construct: made in house
T3 sequence (O76290 1-268): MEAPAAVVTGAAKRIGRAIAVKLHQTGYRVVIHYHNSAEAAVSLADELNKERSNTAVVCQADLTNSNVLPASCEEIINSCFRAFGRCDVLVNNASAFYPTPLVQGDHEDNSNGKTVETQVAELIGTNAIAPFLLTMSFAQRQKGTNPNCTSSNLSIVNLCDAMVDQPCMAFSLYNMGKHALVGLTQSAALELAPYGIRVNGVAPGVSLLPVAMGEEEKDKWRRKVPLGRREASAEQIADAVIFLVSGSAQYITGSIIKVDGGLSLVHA

Chain of CYP2C19 (P33261 whole entry, canonical isoform): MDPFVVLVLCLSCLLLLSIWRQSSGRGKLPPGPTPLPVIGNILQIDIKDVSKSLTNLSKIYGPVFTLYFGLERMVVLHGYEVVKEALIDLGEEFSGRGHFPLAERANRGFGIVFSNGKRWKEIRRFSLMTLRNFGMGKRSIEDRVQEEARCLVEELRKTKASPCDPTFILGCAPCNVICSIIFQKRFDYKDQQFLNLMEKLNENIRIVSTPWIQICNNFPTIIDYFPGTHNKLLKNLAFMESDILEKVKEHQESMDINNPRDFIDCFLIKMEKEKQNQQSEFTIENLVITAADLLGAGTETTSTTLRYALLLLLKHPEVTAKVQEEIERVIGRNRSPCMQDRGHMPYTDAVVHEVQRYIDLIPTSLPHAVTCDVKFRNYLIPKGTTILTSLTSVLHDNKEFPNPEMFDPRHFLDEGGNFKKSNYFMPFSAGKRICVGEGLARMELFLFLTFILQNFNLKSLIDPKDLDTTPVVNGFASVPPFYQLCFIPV

SMILES	inhibition at 10 µM (CYP2C19) [%]	inhibition at 10 µM (CYP2C9) [%]	inhibition at 10 µM (CYP2D6) [%]	inhibition at 10 µM (CYP3A4) [%]	inhibition at 10 µM (CYP1A2) [%]	inhibition at 10 µM (hERG) [%]	inhibition at 10 µM (786-O) [%]	inhibition at 50 µM [1] [%]	viability at 10 µM (in vitro [2]) [%]	viability at 10 µM (in vitro [3]) [%]	inhibition at 50 µM (TbPTR1) [%]	EC50 ([1]; read-out: EC50 T. brucei) [nM]	% Inhibition TbPTR1 at 50 μM (TbPTR1)
Nc1nnc(Cc2ccc3ccccc3c2)s1 [3e]	-54.9 ± 9.3	-47.8 ± 3.9	-31.7 ± 1.7	-3.2 ± 3.8	0.4 ± 1.3	-5.6 ± 3.5	4.3 ± 8.6	0.4	105 ± 38.5	141 ± 5.6	20.9 ± 0.3		
Nc1nnc(Cc2cccs2)s1 [3d]	-17.4 ± 7.4	16 ± 2	29.6 ± 4	17.2 ± 4.1	21.7 ± 3.4	16 ± 8.7	-2.9 ± 14.3	7.5	105 ± 20.6	112 ± 4.9	18.5 ± 0.6		
Nc1nnc(-c2ccco2)s1 [1s]	-10.4 ± 22.5	-9 ± 3.5	-47.6 ± 4.7	-14.9 ± 9.7	0.3 ± 4.9	-3.8 ± 3.2	1.9 ± 4.8	< 0	138 ± 9.8	132 ± 9.6	9 ± 0.8		
Nc1nnc(CCc2ccccc2)s1 [3g]	-36.5 ± 6.1	-10.5 ± 3.7	-43.9 ± 4.1	-25.6 ± 10.5	-14.9 ± 5.7	-1.9 ± 1.3	4 ± 16.1	< 0	101 ± 17.5	109 ± 13.4	7.6 ± 0.3		
COCCCNc1nnc(N)s1 [4s, N2G(3Gmethoxypropyl)G1,3,4GthiadiazoleG2,5Gdiamine]	-20 ± 13.9	-15.5 ± 7.2	-13.5 ± 10.7	-37.5 ± 15.3	-14.8 ± 3.7	3.9 ± 5.4	-0.9 ± 11.9	< 0	89.6 ± 8.9	101 ± 11.2	11.8 ± 0.3		
Nc1nnc(NCc2ccc(F)cc2)s1 [4g]	-13.9 ± 11.1	22.9 ± 1.3	103.1 ± 0.6	11.2 ± 3.1	24.9 ± 2.6	96.9 ± 6.1	-8.3 ± 12.6	33	97.1 ± 30.2	110 ± 8	14.7 ± 1.7		
NCc1ccc(-c2nnc(N)s2)cc1 [1b]	-17.9 ± 3.7	-7.9 ± 0.8	-44.2 ± 10.4	23.7 ± 2.2	-5.3 ± 10.2	5.7 ± 3.9	4.5 ± 2.5	93	98.7 ± 11.4	114 ± 1.2	7.7 ± 0.6	800	did not show inhibition
Nc1nnc(-c2ccccc2)s1 [1a]	76.9 ± 3.2	3.9 ± 2.9	-8.5 ± 2.2	82.6 ± 1.6	24.8 ± 1.8	-3.3 ± 1.9	0.9 ± 10.6	21	101 ± 10.3	119 ± 12.5	25.3 ± 1.2		
Nc1nnc(-c2ccc(-c3ccccc3)cc2)s1 [2a]	95.8 ± 0.7	76.7 ± 0.5	45.4 ± 3.1	50.6 ± 3.7	98.9 ± 0.4		11.1 ± 4.1	43.1	90.7 ± 4.9	142 ± 7.3	10.8 ± 0.4		
COc1cc(-c2nnc(N)s2)cc(OC)c1OC [1e]	-18.5 ± 3.7	-12.4 ± 3.9	-37.2 ± 7.9	-11.2 ± 10.3	2.55 ± 3.9	1 ± 1.9		1.4	105 ± 22.3	114 ± 6.2	13.5 ± 0.4		
Nc1nnc(CCC(=O)c2ccccc2)s1 [3j]	-35.4 ± 6.6	-30.6 ± 6.8	-30.6 ± 5.9	-22.9 ± 7.1	-13.4 ± 12.3	-2.3 ± 10.2		1.2	113 ± 8	138 ± 8.8	12.9 ± 0.7		
CN(C)C(=O)NCc1cccc(-c2nnc(N)s2)c1 [1q]	19.6 ± 8.2	19.7 ± 3.6	20.4 ± 3.5	4.5 ± 11.4	7 ± 1.9			1.2			2.5 ± 0.2		
